Experimental data as given in ChEMBL document CHEMBL1150449, “Conversion of acyclic nonpeptide CCK antagonists into CCK agonists” (Bioorg Med Chem Lett, 1997).

Experiments:
[1] = biological target: Cholecystokinin receptor type A (Cavia porcellus); experiment: Concentration of compound that induced 50% of the maximal contraction in guinea pig gallbladder tissue when tested in vitro
Mus musculus = experiment: Tested in vivo for the relative efficacy (relative to CCK-8 (1 nmol/kg)) for mouse gallbladder emptying after ip administration (0.1 umol/kg); assay type: functional
[2] = biological target: T1, Cholecystokinin receptor type A (Homo sapiens, UniProt P32238); experiment: Tested for the 50% displacement of [125I]CCK-8 from membrane preparation isolated from CHO-K1 cells stably transfected with the cDNA of human Cholecystokinin type A receptor; assay type: cell membranes
T1 sequence (P32238 whole entry): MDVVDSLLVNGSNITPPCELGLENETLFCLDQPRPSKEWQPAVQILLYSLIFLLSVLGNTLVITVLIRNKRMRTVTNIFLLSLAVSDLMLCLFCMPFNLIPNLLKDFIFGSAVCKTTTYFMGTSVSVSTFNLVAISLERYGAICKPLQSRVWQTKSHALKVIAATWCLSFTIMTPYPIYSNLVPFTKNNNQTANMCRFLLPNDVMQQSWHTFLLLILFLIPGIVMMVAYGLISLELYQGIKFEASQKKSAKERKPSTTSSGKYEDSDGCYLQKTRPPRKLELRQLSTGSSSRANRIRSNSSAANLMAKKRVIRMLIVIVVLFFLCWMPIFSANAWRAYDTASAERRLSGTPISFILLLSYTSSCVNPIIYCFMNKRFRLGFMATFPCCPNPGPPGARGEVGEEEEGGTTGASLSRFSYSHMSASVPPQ

[3] = biological target: T2, Gastrin/cholecystokinin type B receptor (Homo sapiens, UniProt P32239); experiment: Tested for 50% displacement of [125I]CCK-8 from membrane preparation isolated from CHO-K1 cells stably transfected with the cDNA of human Cholecystokinin type B receptor; assay type: cell membranes
T2 sequence (P32239 whole entry): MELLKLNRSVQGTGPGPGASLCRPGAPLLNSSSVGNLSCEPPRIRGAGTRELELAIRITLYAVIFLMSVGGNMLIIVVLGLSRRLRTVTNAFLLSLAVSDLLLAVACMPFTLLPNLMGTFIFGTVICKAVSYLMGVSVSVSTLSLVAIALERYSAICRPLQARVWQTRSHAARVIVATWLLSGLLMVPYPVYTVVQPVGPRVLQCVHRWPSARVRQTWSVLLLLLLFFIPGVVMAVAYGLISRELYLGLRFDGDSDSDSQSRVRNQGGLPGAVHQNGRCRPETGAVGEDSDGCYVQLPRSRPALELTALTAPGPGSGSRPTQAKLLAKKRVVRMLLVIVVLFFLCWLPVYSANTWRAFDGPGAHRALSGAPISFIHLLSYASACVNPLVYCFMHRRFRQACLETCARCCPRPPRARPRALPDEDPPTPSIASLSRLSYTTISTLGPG

| SMILES | EC50 [1] [µM] | IC50 [2] [nM] | IC50 [3] [µM] | Relative efficacy (Mus musculus) |
| --- | --- | --- | --- | --- |
| CCCCCN(CC(=O)N(c1ccccc1)C(C)C)C(=O)[C@@H](CCC(=O)O)NC(=O)Nc1ccccc1 | – | – | – | 0.3 |
| CC(C)N(C(=O)CN(C(=O)[C@@H](CCC(=O)O)NC(=O)Nc1ccccc1)c1ccccc1)c1ccccc1 | 0.21 | 1580 | 10 | 0.6 |
| CC(C)N(C(=O)CN(C(=O)CNC(=O)Nc1ccccc1)c1ccccc1)c1ccccc1 | 0.3 | 3160 | 1.58 | <0.2 |

Now from value to compound, other results behind:

| EC50 [1] [µM] | IC50 [2] [nM] | IC50 [3] [µM] | SMILES | Relative efficacy (Mus musculus) |
| --- | --- | --- | --- | --- |
| 0.11 | 251 | 31.6 | COc1ccc(N(C(=O)CN(C(=O)[C@@H](CCC(=O)O)NC(=O)Nc2ccccc2)c2ccccc2)C(C)C)cc1 | 0.8 |
| 5.6 | – | – | COc1ccc(N(C(=O)CN(C(=O)[C@H](CCC(=O)O)NC(=O)Nc2ccccc2)c2ccccc2)C(C)C)cc1 | – |
